# Patent US9744189B1, “Compositions of lithium salts and methods of use” (University of South Florida, priority 2013, dated 2017)
# Read-outs that look alike come from different tables or passages of the source.
# Key:
# [1] = for time of peak lithium plasma level (FIG. 2-3): post-dose; for AUC(0-72): 0-72 h; for TMAX: noncompartmental analysis
# Description: (§1) Male Sprague Dawley rats weighing 200-250 grams were housed in a vivarium with a 12 hour light-dark cycle. The rats were allowed to acclimate for a period of one week before any experiments were carried out, and were allowed free access to food and water throughout the experiment.
# (§2) Animals in each treatment group were euthanized at 2, 24, 48, and 72 hours (n=3/time point) and blood was collected by cardiac puncture and carefully perfused with a pressure-controlled pump to maintain microvasculature integrity before removing brain tissue. Blood was centrifuged at 1600×g at room temperature for 10 minutes and plasma was separated. A 500 μl aliquot was diluted 10 fold in a 5% TCA and 10% IPA solution, vortexed and allowed to sit for 10 minutes in order to precipitate proteins. These aliquots were centrifuged at 3000×g for 30 minutes and the supernatant was transferred to clean tubes prior to measuring lithium content using atomic absorption spectroscopy (AAS). Brains were rinsed with PBS, weighed, and an equal volume of concentrated HNO3 was added. The brains were heated in nitric acid solution for 1 hour, allowed to cool to room temperature, then centrifuged at 3000×g for 1 hour. The supernatant was removed and diluted 10 fold in 10% IPA prior to measuring lithium content using AAS.
# (§3) The reported parameters include CMAX, TMAX, area under curve (AUC), and apparent terminal half-life (HL_Lambda_z).
# (§4) Lithium was measured using atomic absorption spectroscopy (AAS) (Shimadzu AA-6200; Shimadzu Scientific Instruments, Inc., Columbia, Md.). Peak height measurements were carried out referring to values obtained for standards of known concentrations. Lithium measurements were plotted using GraphPad PRISM software (GraphPad Software, Inc., La Jolla, Calif.) as mean±SEM and two tailed t-tests were used to assess the statistical significance at each time point for the pharmacokinetic curves. The criterion for rejection of the null hypothesis was p<0.05.
# [2] = for time of peak brain lithium level (FIG. 4-5): post-dose; for AUC(0-72): 0-72 h; for TMAX: noncompartmental analysis
# Description: as §1, §2, §3, §4
# [3] = rats; carbonate vs chloride vs orotate; cited from earlier work
# [4] = previous reports; cited from earlier work
# [5] = cited from earlier work
# in vivo [6] = settings: male, Sprague-Dawley, rat, plasma, oral, 4 mEq/kg
# Description: as §1, §2, §3, §4
# in vivo [7] = settings: male, Sprague-Dawley, rat, brain, oral, 4 mEq/kg
# Description: as §1, §2, §3, §4
# [8] = Blood, rats, 4 mEq/kg oral gavage
# [9] = Brain, rats, 4 mEq/kg oral gavage
Compound,lithium plasma level by 48 hours ([1]; plasma),lithium plasma level by 72 hours ([1]; plasma),"time of peak lithium plasma level (FIG. 2-3) ([1]; plasma, rats)",brain lithium level at 24 hours ([2]; brain),brain lithium level by 72 hours ([2]; brain),"time of peak brain lithium level (FIG. 4-5) ([2]; brain, rats)","differences in uptake, distribution and excretion of the lithium ion [3]","CMAX [1, 8]","AUC(0-72) [1, 8]","TMAX [1, 8]","AUC(0-72) [2, 9]","TMAX [2, 9]",other results
"O=C([O-])[O-].[Li+].[Li+] [lithium carbonate, reference compound]",about 0.5 μg/ml,around 0 μg/ml,24 h,8 µg/mL,about 0.5 μg/ml,24 h,no differences,–,–,–,–,–,"peak lithium plasma level relative to lithium lactate ([1]; plasma, 24 hours): about 2.5 times; lithium plasma level at 24 hours (peak) ([1]; plasma, 24 hours post-dose): about 12 μg/ml; brain lithium level at 48 hours ([2]; brain, 48 hours): about 3.8 μg/ml; time to elimination [4]: ≤ 48 h"
[Cl-].[Li+] [lithium chloride],–,–,–,–,–,–,no differences,–,–,–,–,–,–
[Li] [lithium],–,–,–,–,–,–,–,–,–,–,–,–,elimination half-life ([5]; acute treatment): 24 h; CNS levels of lithium relative to plasma levels ([5]; in vivo): approximately 40%; serum levels considered toxic ([5]; in vivo): ≥ 2.0; serum levels that increase the likelihood of toxicity and detrimental effects ([5]; in vivo): greater than 1.5 mEq/l; time to peak plasma levels after overdoses ([5]; overdose): 72 h; elimination half-life ([5]; some chronically treated individuals): ≤ 60 h
"CC(O)C(=O)[O-].[Li+] (stereo not drawn) [Lithium Lactate, lithium lactate]",about 0.5 μg/ml,around 0 μg/ml,24 h,around 4 μg/ml,negligible levels,24 h,–,4.54 µg/mL,157.2 µg·h/mL,24 h,152.0 µg·h/g,24 h,"HL_Lambda_z (apparent terminal half-life) [1, 8]: 6.9 h; HL_Lambda_z (apparent terminal half-life) [2, 9]: 13.0 h"
"O=C([O-])c1ccccc1O.[Li+] [Lithium Salicylate, lithium salicylate]",–,–,around 48 hours,–,–,48 h,–,2.21 µg/mL,121.8 µg·h/mL,24 h,153.1 µg·h/g,48 h,concentration at 24 h (in vivo [6]): 2100 ng/mL; concentration at 48 h (in vivo [6]): 2000 ng/mL; concentration at 72 h (in vivo [6]): ~250 ng/mL; concentration at 24 h (in vivo [7]): ~2500 ng/mL; concentration at 48 h (in vivo [7]): 3000 ng/mL; concentration at 72 h (in vivo [7]): 2000 ng/mL
O=C([O-])c1cc(=O)[nH]c(=O)[nH]1.[Li+] [lithium orotate],–,–,–,–,–,–,no differences,–,–,–,–,–,–
